Measured values from patent US5162305.
Read-outs that look alike come from different tables or passages of the source.

Legend:
[1] = amide bond, pyridine/DMF
[2] = the molecule shown is the open-chain precursor; amide bond; 20-membered ring; ONp active ester (from TFA-ONp)/pyridine; pyridine/DMF; 5.2 mM; 50.0 °C; 3 steps

COC(=O)[C@@H]1CCC(=O)NCCCCCC(=O)N[C@@H](CC(N)=O)C(=O)N[C@@H](CC(C)C)C(=O)N[C@@H](COCc2ccccc2)C(=O)N[C@@H]([C@@H](C)OCc2ccccc2)C(=O)N1 [H-Acp-Asn-Leu-Ser(Bzl)-Thr(Bzl)-Glu(ONp)-OMe]
ring closure, isolated yield ([1]; from H-Acp-Asn-Leu-Ser(Bzl)-Thr(Bzl)-Glu(ONp)-OMe, 24-membered ring, TFA-ONp/pyridine, TFA, pyridine, 55.0 °C, 3 steps): 45.9%

H-Gly-Ser(Bzl)-Asn-Leu-Ser(Bzl)-Thr(Bzl)-Glu(ONp)-OBzl?
ring closure, isolated yield ([1]; the molecule shown is the open-chain precursor, 23-membered ring, p-nitrophenyl ester (from TFA-ONp)/pyridine, 1.2 mM, 50.0 °C, 3 steps): 50.7%

CCOC(=O)[C@@H]1CC(=O)NCC(=O)N[C@@H](COCc2ccccc2)C(=O)N[C@@H](CC(N)=O)C(=O)N[C@@H](CC(C)C)C(=O)N[C@@H](COCc2ccccc2)C(=O)N[C@@H]([C@@H](C)OCc2ccccc2)C(=O)N1 [H-Gly-Ser(Bzl)-Asn-Leu-Ser(Bzl)-Thr(Bzl)-Asp(ONp)-OEt]
ring closure, isolated yield ([1]; from H-Gly-Ser(Bzl)-Asn-Leu-Ser(Bzl)-Thr(Bzl)-Asp(ONp)-OEt, 22-membered ring, TFA-ONp/pyridine, TFA, pyridine, 55.0 °C, 3 steps): 61.3%

COC(=O)[C@@H]1CSCCCC(=O)N[C@@H](COCc2ccccc2)C(=O)N[C@@H](CC(N)=O)C(=O)N[C@@H](CC(C)C)C(=O)N[C@@H](COCc2ccccc2)C(=O)N[C@@H]([C@@H](C)OCc2ccccc2)C(=O)N1 [H-Ser(Bzl)-Asn-Leu-Ser(Bzl)-Thr(Bzl)-Cpc(ONp)-OMe]
ring closure, isolated yield ([1]; from H-Ser(Bzl)-Asn-Leu-Ser(Bzl)-Thr(Bzl)-Cpc(ONp)-OMe, 23-membered ring, TFA-ONp/pyridine, TFA, pyridine, 55.0 °C, 3 steps): 55.9%

COC(=O)[C@@H]1CCCCNC(=O)CCC(=O)N[C@@H](CC(N)=O)C(=O)N[C@@H](CC(C)C)C(=O)N[C@@H](COCc2ccccc2)C(=O)N[C@@H]([C@@H](C)OCc2ccccc2)C(=O)N1 [-COCH2 CH2 Co-Asn-Leu-Ser(Bzl)-Thr(Bzl)-Lys--OCH3]
ring closure, isolated yield ([1]; from H-Asn-Leu-Ser(Bzl)-Thr(Bzl)-Lys(COCH2CH2CO-ONp)-OMe, 23-membered ring, TFA-ONp/pyridine, TFA, pyridine, 55.0 °C, 3 steps): 34.9%

H-Ser(Bzl)-Asn-Leu-Ser(Bzl)-Thr(Bzl)-Glu(ONp)-OBzl?
ring closure, crude yield [2]: 62.7%

H-bAla-Ser(Bzl)-Asn-Leu-Ser(Bzl)-Thr(Bzl)-Asp(ONp)-OEt?
ring closure, isolated yield ([1]; the molecule shown is the open-chain precursor, 23-membered ring, p-nitrophenyl ester (from TFA-ONp)/pyridine, 4.6 mM, 50.0 °C, 3 steps): 49.5%

COC(=O)[C@@H]1CSCC(=O)N[C@@H](COCc2ccccc2)C(=O)N[C@@H](CC(N)=O)C(=O)N[C@@H](CC(C)C)C(=O)N[C@@H](COCc2ccccc2)C(=O)N[C@@H]([C@@H](C)OCc2ccccc2)C(=O)N1 [H-Ser(Bzl)-Asn-Leu-Ser(Bzl)-Thr(Bzl)-Cmc(ONp)-OMe]
ring closure, isolated yield ([1]; from H-Ser(Bzl)-Asn-Leu-Ser(Bzl)-Thr(Bzl)-Cmc(ONp)-OMe, 21-membered ring, TFA-ONp/pyridine, TFA, pyridine, 55.0 °C, 3 steps): 41%

CCOC(=O)[C@@H]1CC(=O)NCCCCCC(=O)N[C@@H](CC(N)=O)C(=O)N[C@@H](CC(C)C)C(=O)N[C@@H](COCc2ccccc2)C(=O)N[C@@H]([C@@H](C)OCc2ccccc2)C(=O)N1 [H-Acp-Asn-Leu-Ser(Bzl)-Thr(Bzl)-Asp(ONp)-OEt]
ring closure, isolated yield ([1]; from H-Acp-Asn-Leu-Ser(Bzl)-Thr(Bzl)-Asp(ONp)-OEt, 23-membered ring, TFA-ONp/pyridine, TFA, pyridine, 55.0 °C, 3 steps): 26.6%

H-Ser(Bzl)-Asn-Leu-Ser(Bzl)-Thr(Bzl)-4-CPA(ONp)-OMe?
ring closure, isolated yield ([1]; the molecule shown is the open-chain precursor, 23-membered ring, p-nitrophenyl ester (from TFA-ONp)/pyridine, 1.33 mM, 50.0 °C, 3 steps): 53.8%

COC(=O)[C@@H]1CCCCNC(=O)CCC(=O)N[C@@H](COCc2ccccc2)C(=O)N[C@@H](CC(N)=O)C(=O)N[C@@H](CC(C)C)C(=O)N[C@@H](COCc2ccccc2)C(=O)N[C@@H]([C@@H](C)OCc2ccccc2)C(=O)N1 [H-Ser(Bzl)-Asn-Leu-Ser(Bzl)-Thr(Bzl)-Lys(COCH2CH2CO-ONp)-OMe]
ring closure, isolated yield ([1]; from H-Ser(Bzl)-Asn-Leu-Ser(Bzl)-Thr(Bzl)-Lys(COCH2CH2CO-ONp)-OMe, 26-membered ring, TFA-ONp/pyridine, TFA, pyridine, 2.6 mM, 55.0 °C, 3 steps): 55.5%

H-Ser(Bzl)-Asn-Leu-Ser(Bzl)-Thr(Bzl)-Tyr(CH2CO-ONp)-OMe
ring closure, isolated yield ([1]; the molecule shown is the open-chain precursor, 25-membered ring, TFA-ONp/pyridine, TFA, pyridine, then N2H4, 55.0 °C, 4 steps): 43.8%

COC(=O)[C@@H]1CCC(=O)NCCC(=O)N[C@@H](COCc2ccccc2)C(=O)N[C@@H](CC(N)=O)C(=O)N[C@@H](CC(C)C)C(=O)N[C@@H](COCc2ccccc2)C(=O)N[C@@H]([C@@H](C)OCc2ccccc2)C(=O)N1 [H-βAla-Ser(Bzl)-Asn-Leu-Ser(Bzl)-Thr(Bzl)-Glu(ONp)-OMe]
ring closure, isolated yield ([1]; from H-βAla-Ser(Bzl)-Asn-Leu-Ser(Bzl)-Thr(Bzl)-Glu(ONp)-OMe, 24-membered ring, TFA-ONp/pyridine, TFA, pyridine, 55.0 °C, 3 steps): 68.1%
